Results: ChEMBL document CHEMBL3872247, “Discovery of dual positive allosteric modulators (PAMs) of the metabotropic glutamate 2 receptor and CysLT1 antagonists for treating migraine headache” (Bioorg Med Chem Lett, 2017)

Experiments:
[1] = target: T1, Metabotropic glutamate receptor 2 (Homo sapiens, UniProt Q14416); test: Positive allosteric modulation of recombinant human mGlu2 receptor expressed in hamster AV12 cells expressing EAAT1 assessed as potentiation of glutamate-induced intracellular calcium level measured after 24 to 48 hrs by FLIPR assay relative to glutamate; assay type: functional, cell-based
Target sequence in this assay (Q14416 19-872 limits assumed): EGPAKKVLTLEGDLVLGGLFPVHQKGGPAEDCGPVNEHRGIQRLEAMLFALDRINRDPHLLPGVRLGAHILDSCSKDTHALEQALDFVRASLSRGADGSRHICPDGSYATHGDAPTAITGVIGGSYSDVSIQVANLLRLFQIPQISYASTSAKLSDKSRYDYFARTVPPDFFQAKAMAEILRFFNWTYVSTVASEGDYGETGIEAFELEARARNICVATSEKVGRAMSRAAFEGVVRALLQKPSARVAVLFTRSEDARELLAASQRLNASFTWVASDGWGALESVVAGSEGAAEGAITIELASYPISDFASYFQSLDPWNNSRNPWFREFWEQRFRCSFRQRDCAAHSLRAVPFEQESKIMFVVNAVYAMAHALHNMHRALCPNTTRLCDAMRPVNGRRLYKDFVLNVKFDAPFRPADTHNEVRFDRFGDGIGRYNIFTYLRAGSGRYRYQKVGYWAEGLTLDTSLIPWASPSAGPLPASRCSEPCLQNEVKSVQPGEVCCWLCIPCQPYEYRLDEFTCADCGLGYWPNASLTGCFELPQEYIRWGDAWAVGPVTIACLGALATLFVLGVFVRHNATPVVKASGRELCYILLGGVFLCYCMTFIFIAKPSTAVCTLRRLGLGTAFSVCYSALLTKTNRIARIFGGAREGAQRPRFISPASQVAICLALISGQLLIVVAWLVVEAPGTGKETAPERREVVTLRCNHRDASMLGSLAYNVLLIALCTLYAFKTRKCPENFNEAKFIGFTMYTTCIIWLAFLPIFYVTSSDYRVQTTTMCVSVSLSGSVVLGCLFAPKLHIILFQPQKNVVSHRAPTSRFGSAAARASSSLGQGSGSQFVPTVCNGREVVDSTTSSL

[2] = target: T2, Cysteinyl leukotriene receptor 1 (Homo sapiens, UniProt Q9Y271); test: Antagonist activity at human CysLT1 receptor expressed in Syrian hamster AV12-664 cells assessed as decrease in LTD4-induced intracellular calcium level pretreated followed by LTD4 addition by fluo-3 dye based FLIPR assay; assay type: functional, cell-based
T2 sequence (Q9Y271 whole entry): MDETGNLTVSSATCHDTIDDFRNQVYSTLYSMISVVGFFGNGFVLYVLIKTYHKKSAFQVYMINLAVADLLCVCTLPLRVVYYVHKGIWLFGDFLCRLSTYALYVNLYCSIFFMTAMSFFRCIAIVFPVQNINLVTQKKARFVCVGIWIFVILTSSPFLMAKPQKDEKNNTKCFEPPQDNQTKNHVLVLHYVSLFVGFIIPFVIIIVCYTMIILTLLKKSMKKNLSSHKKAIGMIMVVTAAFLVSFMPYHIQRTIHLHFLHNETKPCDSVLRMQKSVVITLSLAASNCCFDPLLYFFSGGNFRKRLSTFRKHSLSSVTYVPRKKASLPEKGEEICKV

[3] = target: T1, Metabotropic glutamate receptor 2; test: Positive allosteric modulation of recombinant human mGlu2 receptor expressed in hamster AV12 cells expressing EAAT1 assessed as potentiation of glutamate-induced intracellular calcium level measured after 24 to 48 hrs by FLIPR assay; assay type: functional, cell-based
Target sequence in this assay (Q14416 whole entry): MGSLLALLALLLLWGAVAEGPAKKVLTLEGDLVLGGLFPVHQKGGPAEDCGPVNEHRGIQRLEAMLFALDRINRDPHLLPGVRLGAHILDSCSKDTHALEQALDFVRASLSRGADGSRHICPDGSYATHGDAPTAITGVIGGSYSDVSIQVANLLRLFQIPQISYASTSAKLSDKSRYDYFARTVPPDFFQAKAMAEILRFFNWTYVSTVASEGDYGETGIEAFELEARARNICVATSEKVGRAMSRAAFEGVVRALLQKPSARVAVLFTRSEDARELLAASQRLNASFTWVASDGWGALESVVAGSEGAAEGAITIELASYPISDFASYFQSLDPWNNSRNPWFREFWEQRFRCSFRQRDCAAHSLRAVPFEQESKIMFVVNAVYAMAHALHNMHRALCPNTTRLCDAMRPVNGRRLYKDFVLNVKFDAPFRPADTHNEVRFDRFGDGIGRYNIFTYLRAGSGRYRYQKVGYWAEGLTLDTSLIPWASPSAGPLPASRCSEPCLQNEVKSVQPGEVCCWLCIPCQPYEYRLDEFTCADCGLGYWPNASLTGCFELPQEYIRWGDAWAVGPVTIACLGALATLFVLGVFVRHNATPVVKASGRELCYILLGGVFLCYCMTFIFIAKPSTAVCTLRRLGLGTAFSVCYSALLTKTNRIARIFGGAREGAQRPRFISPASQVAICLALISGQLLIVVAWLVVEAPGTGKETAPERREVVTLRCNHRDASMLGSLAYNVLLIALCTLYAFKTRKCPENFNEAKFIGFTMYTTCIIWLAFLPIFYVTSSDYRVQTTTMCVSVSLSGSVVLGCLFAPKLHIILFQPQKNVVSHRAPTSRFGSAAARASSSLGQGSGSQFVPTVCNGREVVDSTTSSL

[4] = Ratio of Cmax in rat to EC50 for human mGlu2 receptor expressed in hamster AV12 cells expressing EAAT1
[5] = Ratio of Cmax in rat to EC50 for human CysLT1 expressed in Syrian hamster AV12-664 cells
[6] = Tmax in rat at 1 mg/kg, po; assay type: ADME, organism-based; details: in vivo
[7] = system: Rattus norvegicus; test: Decrease in plasma protein extravasation in fasted Harlan Sprague-Dawley rat model of migraine compound administered via oral gavage 1 hr prior to electrical stimulation of trigeminal ganglion measured after 15 mins by FITC-BSA based fluorescence assay; assay type: functional
[8] = Cmax in rat at 1 mg/kg, po; assay type: ADME, organism-based; set-up: dose 1 mg/kg, route oral; details: in vivo
[9] = Oral bioavailability in rat at 1 mg/kg; assay type: ADME, organism-based; details: in vivo

SMILES	Emax [1] [%]	IC50 [2] [nM]	EC50 [3] [nM]	Tmax [6] [min]	Cmax [8] [ng/mL]	bioavailability [9] [%]	Ratio [4]	Ratio [5]	Activity [7]	ID100 [7] [mg/kg]
CC(=O)c1ccc(OCc2cccc(Oc3ccc(-c4nn[nH]n4)cn3)c2)c(F)c1O	91	1500	1080							
CC(=O)c1ccc(OCc2ccc(Oc3cccc(-c4nn[nH]n4)c3)cc2)c(C)c1O	85	1430	293 to 336	42	430	88	3.08	0.73	Dose-dependent effect	0.1
CNS(=O)(=O)Cc1ccc2[nH]cc(CCN(C)C)c2c1 [SUMATRIPTAN]										1
CCCc1c(OCc2ccc(Oc3cccc(-c4nn[nH]n4)c3)nc2)ccc(C(C)=O)c1O	74	484	562							
CC(=O)c1ccc(OCc2cccc(Oc3ccc(-c4nn[nH]n4)cn3)c2)c(Cl)c1O	90	475	39.3							
CCCc1c(OCc2ccc(Oc3ccc(-c4nn[nH]n4)cn3)cc2)ccc(C(C)=O)c1O	94	346	682							
CCCc1c(OCc2cccc(Oc3ncccc3-c3nn[nH]n3)c2)ccc(C(C)=O)c1O	85	390	227							

The next lines start with results.

Emax [1] [%]	IC50 [2] [nM]	EC50 [3] [nM]	Tmax [6] [min]	Cmax [8] [ng/mL]	bioavailability [9] [%]	SMILES	Ratio [4]	Ratio [5]	Activity [7]	ID100 [7] [mg/kg]
96	132	1430				CCCc1c(OCc2ccc(Oc3ccc(C(=O)O)cn3)cc2)ccc(C(C)=O)c1O				
81	112	6 to 6.4	24	24.1	38	CC(=O)c1ccc(OCc2cccc(Oc3cc(-c4nn[nH]n4)ccn3)c2)c(C(F)(F)F)c1O	8.52	0.46	Dose-dependent effect	0.01
90 to 96	62.4	110				CCCc1c(OCc2cccc(Oc3cc(-c4nn[nH]n4)ccn3)c2)ccc(C(C)=O)c1O				
101	342	87.4				CC(=O)c1ccc(OCc2cccc(Oc3cc(-c4nn[nH]n4)ccn3)c2)c(Cl)c1O				
85	144	17.9				CC(=O)c1ccc(OCc2cccc(Oc3ccc(-c4nn[nH]n4)cn3)c2)c(C(F)(F)F)c1O				
87	330	310				CCCc1c(OCc2ccc(Oc3ncccc3-c3nn[nH]n3)cc2)ccc(C(C)=O)c1O				
91	73.6	404				CCCc1c(OCc2cccc(Oc3cc(C(=O)O)ccn3)c2)ccc(C(C)=O)c1O				
88 to 89	200	470				CCCc1c(OCc2ccc(Oc3cc(-c4nn[nH]n4)ccn3)cc2)ccc(C(C)=O)c1O				
80	203	319				CCCc1c(OCc2cccc(Oc3ccc(-c4nn[nH]n4)cn3)c2)ccc(C(C)=O)c1O				
